Reference: ChEMBL document CHEMBL2163341, “Discovery of MK-7725, A Potent, Selective Bombesin Receptor Subtype-3 Agonist for the Treatment of Obesity” (ACS Med Chem Lett, 2012)
pEC50, pIC50: −log10 of the molar value. The source made the active and inactive calls. No cut-off for these calls is given here.

Key:
[1] = Half life in Sprague-Dawley rat at 0.5 mg/kg, iv; format: ADME, organism-based; design: dose 0.5 mg/kg, route intravenous; conditions: in vivo
[2] = target: T1, Bombesin receptor subtype-3 (Mus musculus) (UniProt O54798); test: Agonist activity at mouse BRS-3 expressed in HEK293AEQ cells assessed as bioluminescence for 10 mins by aequorin bioluminescence assay relative to dY-peptide; format: functional, cell-based
T1 sequence (whole entry): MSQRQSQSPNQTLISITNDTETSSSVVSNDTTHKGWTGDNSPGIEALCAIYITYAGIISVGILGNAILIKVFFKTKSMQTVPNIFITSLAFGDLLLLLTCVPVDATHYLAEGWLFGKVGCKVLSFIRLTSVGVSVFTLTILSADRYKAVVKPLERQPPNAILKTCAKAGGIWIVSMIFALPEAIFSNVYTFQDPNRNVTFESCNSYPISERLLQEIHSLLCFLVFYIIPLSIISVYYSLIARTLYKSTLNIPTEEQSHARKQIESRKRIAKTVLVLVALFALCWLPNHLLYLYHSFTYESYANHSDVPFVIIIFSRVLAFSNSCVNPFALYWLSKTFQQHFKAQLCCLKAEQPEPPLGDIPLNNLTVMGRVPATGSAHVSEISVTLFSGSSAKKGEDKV

[3] = target: T2, Bombesin receptor subtype-3 (Homo sapiens) (UniProt P32247); test: Agonist activity at human BRS-3 expressed in HEK293AEQ cells assessed as bioluminescence for 10 mins by aequorin bioluminescence assay relative to dY-peptide; format: functional, cell-based
T2 sequence (whole entry): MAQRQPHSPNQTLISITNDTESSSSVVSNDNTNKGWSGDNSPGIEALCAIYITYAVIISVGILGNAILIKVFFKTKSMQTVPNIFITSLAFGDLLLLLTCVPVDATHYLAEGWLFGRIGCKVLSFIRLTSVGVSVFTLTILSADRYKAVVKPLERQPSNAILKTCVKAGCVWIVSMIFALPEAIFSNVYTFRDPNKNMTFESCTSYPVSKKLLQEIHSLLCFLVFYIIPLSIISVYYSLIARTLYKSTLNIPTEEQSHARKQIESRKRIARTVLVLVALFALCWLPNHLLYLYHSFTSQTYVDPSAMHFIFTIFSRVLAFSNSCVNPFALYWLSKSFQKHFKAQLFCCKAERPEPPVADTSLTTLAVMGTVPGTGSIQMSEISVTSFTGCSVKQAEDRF

Mus musculus [4] = test: Increase of core body temperature in DIO mouse assessed as AUC (1 to 6 hrs) of body temperature changes at 3 mg/kg by fasted temperature PD assay; format: functional
[5] = target: T3, Nuclear receptor subfamily 1 group I member 2 (Homo sapiens, UniProt O75469); test: Activation of PXR at 10 uM
T3 sequence (O75469 whole entry): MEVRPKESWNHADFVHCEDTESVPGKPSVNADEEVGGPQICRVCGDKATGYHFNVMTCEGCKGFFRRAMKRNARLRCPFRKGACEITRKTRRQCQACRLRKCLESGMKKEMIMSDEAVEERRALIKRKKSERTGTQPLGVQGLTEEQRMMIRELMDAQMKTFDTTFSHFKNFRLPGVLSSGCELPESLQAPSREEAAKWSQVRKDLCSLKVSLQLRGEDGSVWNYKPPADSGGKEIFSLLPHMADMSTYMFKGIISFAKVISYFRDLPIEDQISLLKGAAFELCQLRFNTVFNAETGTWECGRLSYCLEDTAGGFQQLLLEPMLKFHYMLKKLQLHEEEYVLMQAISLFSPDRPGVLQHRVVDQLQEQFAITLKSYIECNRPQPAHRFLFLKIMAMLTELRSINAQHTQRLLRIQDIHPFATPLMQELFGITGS

[6] = Plasma clearance in Sprague-Dawley rat at 0.5 mg/kg, iv; format: ADME, organism-based; design: dose 0.5 mg/kg, route intravenous
[7] = target: T4, Bombesin receptor subtype-3 (Homo sapiens, UniProt P32247); test: Displacement of [125I]-dY-peptide from human BRS-3 expressed in NFAT-CHO cells after 2 hrs by liquid scintillation counting; format: cell-based
T4 sequence (P32247 whole entry): T2 sequence (whole entry)

[8] = target: T5, Bombesin receptor subtype-3 (Mus musculus, UniProt O54798); test: Agonist activity at mouse BRS-3 expressed in HEK293AEQ cells assessed as bioluminescence for 10 mins by aequorin bioluminescence assay; format: functional, cell-based
T5 sequence (O54798 whole entry): T1 sequence (whole entry)

[9] = target: T4, Bombesin receptor subtype-3; test: Agonist activity at human BRS-3 expressed in HEK293AEQ cells assessed as bioluminescence for 10 mins by aequorin bioluminescence assay; format: functional, cell-based
Rattus norvegicus [10] = test: Dose normalized AUC in Sprague-Dawley rat at 1 mg/kg, po; format: ADME, organism-based; design: dose 1 mg/kg, route oral; conditions: in vivo
[11] = Oral bioavailability in Sprague-Dawley rat at 1 mg/kg; format: ADME, organism-based; conditions: in vivo
[12] = target: T3, Nuclear receptor subfamily 1 group I member 2; test: Activation of PXR
[13] = Oral bioavailability in rhesus monkey at 1 mg/kg; format: ADME, organism-based, Macaca mulatta; conditions: in vivo
Canis familiaris [14] = test: Dose normalized AUC in dog at 1 mg/kg, po; format: ADME, organism-based, Canis lupus familiaris; design: dose 1 mg/kg, route oral; conditions: in vivo
[15] = Plasma clearance in dog at 0.5 mg/kg, iv; format: ADME, organism-based, Canis lupus familiaris; design: dose 0.5 mg/kg, route intravenous
Mus musculus [16] = test: Antiobesity activity in po dosed wild type DIO C57 mouse assessed as reduction of body weight; format: functional, organism-based
Mus musculus [17] = test: Antiobesity activity in po dosed wild type DIO C57 mouse assessed as reduction of food intake; format: functional, organism-based
Rhesus monkey = test: Dose normalized AUC in rhesus monkey at 1 mg/kg, po; format: ADME, organism-based, Macaca mulatta; design: dose 1 mg/kg, route oral; conditions: in vivo
Rattus norvegicus [18] = test: Antiobesity activity in DIO Sprague-Dawley rat assessed as reduction of body weight at 15 mg/kg, po administered bid for 12 days; format: functional; design: scale not given: the % may be the effect or the level left
Rattus norvegicus [19] = test: Antiobesity activity in DIO Sprague-Dawley rat assessed as increase in metabolic rate at 15 to 50 mg/kg, po administered bid for 12 days; format: functional, organism-based
[20] = Half life in rhesus monkey at 0.5 mg/kg, iv; format: ADME, organism-based, Macaca mulatta; design: dose 0.5 mg/kg, route intravenous; conditions: in vivo
Rattus norvegicus [21] = test: Antiobesity activity in DIO Sprague-Dawley rat assessed as reduction of body weight at 50 mg/kg, po administered bid for 12 days; format: functional; design: scale not given: the % may be the effect or the level left
Rattus norvegicus [22] = test: Toxicity in DIO Sprague-Dawley rat assessed as tachyphylaxis at 15 to 50 mg/kg, po administered bid for 12 days; format: organism-based; design: dose 15-50 mg/kg, route oral; conditions: in vivo, 288 h
Mus musculus [23] = test: Antiobesity activity in BRS-3 knock out DIO C57BL/6 mouse assessed as reduction of food intake at 100 mg/kg, po after 18 hrs; format: functional, organism-based; design: dose 100 mg/kg
[24] = Plasma clearance in rhesus monkey at 0.5 mg/kg, iv; format: ADME, organism-based, Macaca mulatta; design: dose 0.5 mg/kg, route intravenous
[25] = Oral bioavailability in dog at 1 mg/kg; format: ADME, organism-based, Canis lupus familiaris; conditions: in vivo
[26] = Half life in dog at 0.5 mg/kg, iv; format: ADME, organism-based, Canis lupus familiaris; design: dose 0.5 mg/kg, route intravenous; conditions: in vivo
Canis familiaris [27] = test: Antiobesity activity in obese Beagle dog assessed as reduction of body weight at 5 to 15 mg/kg, po administered for 7 days relative to control; format: functional, Canis lupus familiaris; design: scale not given: the % may be the effect or the level left; conditions: dose mg/kg 5-15
Rattus norvegicus [28] = test: Antiobesity activity in DIO Sprague-Dawley rat assessed as reduction of body weight at 3 mg/kg, po administered bid for 12 days; format: functional; design: scale not given: the % may be the effect or the level left

SMILES | half-life [1] | Activity [2] | Activity [3] | Activity (Mus musculus [4]) | Activity [5] | clearance [6] | pIC50 [7] | pEC50 [8] | pEC50 [9] | AUC/dose (Rattus norvegicus [10]) | bioavailability [11] | pEC50 [12] | further results
CC(C)(C)c1ccc(S(=O)(=O)N2Cc3ccc(C(F)(F)F)nc3Nc3cccc(-c4noc(CO)n4)c32)cc1 | 1.7 h | 114% | 102% | 2.6 degreeC.hr | 78% | 22 mL/min/kg | 9.15 | 7.03 | 7.25 | 0.39 µM·kg·h/mg | 29% | 5.46 | 
CC(C)(O)c1nc(-c2cccc3c2N(S(=O)(=O)c2ccc(OC(F)(F)F)cc2)Cc2ccc(C(F)(F)F)nc2N3)no1 |  | 106% |  | 5.6 degreeC.hr | 17% |  |  |  |  | 1.6 µM·kg·h/mg |  | < 4.52 | bioavailability [13]: 58%; AUC/dose (Canis familiaris [14]): 10 µM·kg·h/mg; clearance [15]: 2.9 mL/min/kg; Activity (Mus musculus [16]): Dose-dependent effect; Activity (Mus musculus [17]): Dose-dependent effect; AUC/dose (Rhesus monkey): 12 µM·kg·h/mg; Activity (Rattus norvegicus [18]): 4%; Activity (Rattus norvegicus [19]): Active; half-life [20]: 33 h; Activity (Rattus norvegicus [21]): 3.2%; Activity (Rattus norvegicus [22]): Non-toxic; Activity (Mus musculus [23]): inactive; clearance [24]: 1.3 mL/min/kg; bioavailability [25]: 100%; half-life [26]: 18 h; Activity (Canis familiaris [27]): 4%
C[C@@H](O)c1nc(-c2cccc3c2N(S(=O)(=O)c2ccc(C(C)(C)C)cc2)Cc2ccc(C(F)(F)F)nc2N3)no1 | 1.8 h | 112% | 107% | 0.4 degreeC.hr | 18% | 33 mL/min/kg | 8.72 | 6.87 | 7.16 | 0.9 µM·kg·h/mg | 11% | < 4.60 | 
CCNC(C)Cc1cccc(C(F)(F)F)c1 (stereo not given) [FENFLURAMINE] |  |  |  |  |  |  |  |  |  |  |  |  | Activity (Rattus norvegicus [28]): 6.2%
CC(C)(C)c1ccc(S(=O)(=O)N2Cc3ccc(C(F)(F)F)nc3Nc3cccc(-c4noc(C(C)(C)O)n4)c32)cc1 | 1.9 h | 117% | 106% | 2.6 degreeC.hr | 13% | 44 mL/min/kg | 9.05 | 7.08 | 7.28 | 0.65 µM·kg·h/mg | 14% | < 5.00 | 
C[C@H](O)c1nc(-c2cccc3c2N(S(=O)(=O)c2ccc(C(C)(C)C)cc2)Cc2ccc(C(F)(F)F)nc2N3)no1 | 2.1 h | 109% | 102% | 3.7 degreeC.hr | 9% | 86 mL/min/kg | 8.92 | 7.05 | 7.28 | 0.34 µM·kg·h/mg | 14% | < 5.00 | 
